Results taken from BindingDB's records for doi:10.1021/jm9606608 (Boehringer Ingelheim (Canada), 1997).

These compounds were tested against T1, Dimer of Gag-Pol polyprotein [489-587] (Human immunodeficiency virus 1, UniProt P12497) (assay: Protease Inhibition Assay). Conditions: pH 5.5; 37 °C.
T1 construct: 489-587
Experimental: (§1) Sensitivity of HIV-1 protease activity to protease inhibitors was determined by a peptide substrate cleavage assay. Cleavage products and substrate were separated by reversed-phase HPLC on a Perkin-Elmer 3 X 3CR C8 column.

How did the IC50 turn out when `CC(C)[C@H](NC(=O)OCc1ccccc1)C(=O)N[C@@H](Cc1ccccc1)[C@H](O)CNC(=O)C1CCCCC1C(=O)NC(C)(C)C` (stereo partly drawn) [benzyl N-[(1S)-1-{[(2S,3R)-4-{[2-(tert-butylcarbamoyl)cyclohexyl]formamido}-3-hydroxy-1-phenylbutan-2-yl]carbamoyl}-2-methylpropyl]carbamate] was run?
Its IC50 is 140 nM.

For `CCC(CC)NC(=O)C[C@@H](C(=O)NC[C@@H](O)[C@H](Cc1ccccc1)NC(=O)[C@@H](NC(=O)c1cnc2ccccc2n1)C(C)O)C(C)(C)C` (stereo partly drawn) [(2R)-2-tert-butyl-N-[(2R,3S)-2-hydroxy-3-[(2S,3R)-3-hydroxy-2-(quinoxalin-2-ylformamido)butanamido]-4-phenylbutyl]-N'-(pentan-3-yl)butanediamide], which IC50 is on record?
Its IC50 is 3 nM.

`CCC(CC)NC(=O)C[C@@H](C(=O)NC[C@@H](O)[C@H](Cc1ccccc1)NC(=O)[C@@H](NC(=O)OCc1ccccc1)C(C)O)C(C)(C)C` (stereo partly drawn) [benzyl N-[(1S,2S)-1-{[(2S,3R)-4-[(2R)-2-tert-butyl-N-(pentan-3-yl)butanediamido]-3-hydroxy-1-phenylbutan-2-yl]carbamoyl}-2-hydroxypropyl]carbamate] was tested. Which IC50 did it give?
Its IC50 is 8.2 nM.

For `CCC(CC)NC(=O)C[C@@H](C(=O)NC[C@@H](O)[C@H](Cc1ccccc1)NC(=O)[C@@H](NC(=O)c1ccc2ccccc2n1)C(C)O)C(C)(C)C` (stereo partly drawn) [(2R)-2-tert-butyl-N-[(2R,3S)-2-hydroxy-3-[(2S,3R)-3-hydroxy-2-(quinolin-2-ylformamido)butanamido]-4-phenylbutyl]-N'-(pentan-3-yl)butanediamide], which IC50 is on record?
The IC50 was 3.6 nM.

These compounds were tested against T2, Dimer of Gag-Pol polyprotein [514-612] (Human immunodeficiency virus 2, UniProt P04584) (assay: Protease Inhibition Assay). Conditions: pH 5.5; 37 °C.
T2 construct: 514-612
T2 sequence (P04584 whole entry): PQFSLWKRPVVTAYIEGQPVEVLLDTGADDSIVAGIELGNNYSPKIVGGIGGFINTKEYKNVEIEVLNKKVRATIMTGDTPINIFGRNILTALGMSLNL
Experimental: as §1

`CCC(CC)NC(=O)C[C@@H](C(=O)NC[C@@H](O)[C@H](Cc1ccccc1)NC(=O)[C@H](CC(N)=O)NC(=O)c1cnc2ccccc2n1)C(C)(C)C` [(2S)-N-[(2S,3R)-4-[(2R)-2-tert-butyl-N-(pentan-3-yl)butanediamido]-3-hydroxy-1-phenylbutan-2-yl]-2-(quinoxalin-2-ylformamido)butanediamide] was tested. Which IC50 did it give?
Its IC50 is 6.3 nM.

With `CCC(CC)NC(=O)C[C@@H](C(=O)NC[C@@H](O)[C@H](Cc1ccccc1)NC(=O)[C@@H](NC(=O)c1ccc2ccccc2n1)C(C)C)C(C)(C)C` [(2R)-2-tert-butyl-N-[(2R,3S)-2-hydroxy-3-[(2S)-3-methyl-2-(quinolin-2-ylformamido)butanamido]-4-phenylbutyl]-N'-(pentan-3-yl)butanediamide] as the compound, how does the IC50 read?
Its IC50 is 42 nM.

`CCC(CC)NC(=O)C[C@@H](C(=O)NC[C@@H](O)[C@H](Cc1ccccc1)NC(=O)[C@@H](NC(=O)c1cnc2ccccc2n1)C(C)O)C(C)(C)C` (stereo partly drawn) [(2R)-2-tert-butyl-N-[(2R,3S)-2-hydroxy-3-[(2S,3R)-3-hydroxy-2-(quinoxalin-2-ylformamido)butanamido]-4-phenylbutyl]-N'-(pentan-3-yl)butanediamide] was tested. Which IC50 did it give?
The IC50 was 135 nM.

Which IC50 does the source give for `CCC(CC)NC(=O)C[C@@H](C(=O)NC[C@@H](O)[C@H](Cc1ccccc1)NC(=O)[C@H](CC(N)=O)NC(=O)c1ccc2ccccc2n1)C(C)(C)C` [(2S)-N-[(2S,3R)-4-[(2R)-2-tert-butyl-N-(pentan-3-yl)butanediamido]-3-hydroxy-1-phenylbutan-2-yl]-2-(quinolin-2-ylformamido)butanediamide] here?
Its IC50 is 6.7 nM.

How did the IC50 turn out when `CCC(CC)NC(=O)C[C@@H](C(=O)NC[C@@H](O)[C@H](Cc1ccccc1)NC(=O)[C@@H](NC(=O)c1cnc2ccccc2n1)C(C)C)C(C)(C)C` [(2R)-2-tert-butyl-N-[(2R,3S)-2-hydroxy-3-[(2S)-3-methyl-2-(quinoxalin-2-ylformamido)butanamido]-4-phenylbutyl]-N'-(pentan-3-yl)butanediamide] was run?
Its IC50 is 38 nM.
